Activity calls are given as the source filed them. The calls are words filed in the database; no cut-off is given here.
These compounds were tested on Staphylococcus aureus (assay: Growth inhibition of Staphylococcus aureus 1199B expressing NorA at 0.1 mg/ml after 24 hrs in presence of 4 mg/L ciprofloxacin). Details: not given.
Assay type: functional

Row | SMILES | Inhibition [%] | Activity
1 | O=C(O)c1cn(-c2ccccc2)nn1 | 15 | –
2 | O=C1c2ccccc2C(=O)N1Cc1cn(-c2ccccc2)nn1 | 17 | –
3 | COc1ccc(-n2cc(C(=O)O)nn2)cc1 | 24 | –
4 | COc1ccc(-n2cc(CN3C(=O)c4ccccc4C3=O)nn2)cc1 | 18 | –
5 | O=C(O)c1cn(-c2cccnc2)nn1 | 24 | –
6 | O=C(O)c1cn(Cc2ccccc2)nn1 | 9 | –
7 | c1ccc(OCc2cn(-c3cccnc3)nn2)cc1 | 56 | –
8 | OCc1cn(Cc2ccccc2)nn1 | – | inactive
9 | CCCCCCCCCCCCn1cc(CN2C(=O)c3ccccc3C2=O)nn1 | 45 | –
10 | O=C1c2ccccc2C(=O)N1Cc1cn(Cc2ccccc2)nn1 | 36 | –
11 | CCOC(OCC)c1cn(-c2ccccc2)nn1 | – | inactive
12 | COC(=O)c1cn(-c2cccnc2)nn1 | – | inactive
13 | CCCCCCCCn1cc(CN2C(=O)c3ccccc3C2=O)nn1 | 25 | –
14 | C=CCn1cc(C(=O)O)nn1 | 6 | –
15 | CCOC(OCC)c1cn(Cc2ccccc2)nn1 | 8 | –
16 | c1ccc(OCc2cn(-c3ccccc3)nn2)cc1 | 26 | –
17 | COC(=O)c1cn(Cc2ccccc2)nn1 | 18 | –
18 | C=CCn1cc(COc2ccccc2)nn1 | 20 | –
19 | CCOC(OCC)c1cn(-c2ccc(OC)cc2)nn1 | 71 | –
20 | COc1ccc(-n2cc(COc3ccccc3)nn2)cc1 | 16 | –
21 | O=C1c2ccccc2C(=O)N1Cc1cn(-c2cccnc2)nn1 | 26.6 | –
22 | C=CCn1cc(CN2C(=O)c3ccccc3C2=O)nn1 | 23 | –
23 | O=C1c2ccccc2C(=O)N1Cc1cn(-c2ccc([N+](=O)[O-])cc2)nn1 | 38 | –
24 | c1ccc(Cn2cc(COc3ccccc3)nn2)cc1 | 20 | –
25 | C=CCn1cc(C(OCC)OCC)nn1 | – | inactive
26 | O=[N+]([O-])c1ccc(-n2cc(COc3ccccc3)nn2)cc1 | 24 | –
27 | CCOC(OCC)c1cn(-c2cccnc2)nn1 | – | inactive
28 | C=CCn1cc(C(=O)OC)nn1 | 16 | –

What follows are compounds tested on Staphylococcus aureus (assay: Growth inhibition of Staphylococcus aureus ATCC 25923 at 0.1 mg/ml after 24 hrs). Details: not given.
Assay type: functional

Row | SMILES | Activity
29 | O=C(O)c1cn(-c2ccccc2)nn1 | inactive
30 | O=C1c2ccccc2C(=O)N1Cc1cn(-c2ccccc2)nn1 | inactive
31 | COc1ccc(-n2cc(C(=O)O)nn2)cc1 | inactive
32 | O=C(O)c1cn(Cc2ccccc2)nn1 | inactive
33 | O=C1c2ccccc2C(=O)N1Cc1cn(Cc2ccccc2)nn1 | inactive
34 | CCOC(OCC)c1cn(-c2ccccc2)nn1 | inactive
35 | CCCCCCCCn1cc(CN2C(=O)c3ccccc3C2=O)nn1 | inactive
36 | C=CCn1cc(C(=O)O)nn1 | inactive
37 | CCOC(OCC)c1cn(-c2ccc(OC)cc2)nn1 | inactive
38 | C=CCn1cc(CN2C(=O)c3ccccc3C2=O)nn1 | inactive
39 | CCOC(OCC)c1cn(-c2cccnc2)nn1 | inactive

Same assay, conditions: ATCC 25923, 24 h

Row | SMILES | inhibition at 100 µg/mL [%]
40 | COc1ccc(-n2cc(CN3C(=O)c4ccccc4C3=O)nn2)cc1 | 24
41 | O=C(O)c1cn(-c2cccnc2)nn1 | 14
42 | c1ccc(OCc2cn(-c3cccnc3)nn2)cc1 | 22
43 | OCc1cn(Cc2ccccc2)nn1 | 6.1
44 | CCCCCCCCCCCCn1cc(CN2C(=O)c3ccccc3C2=O)nn1 | 20
45 | COC(=O)c1cn(-c2cccnc2)nn1 | 16
46 | CCOC(OCC)c1cn(Cc2ccccc2)nn1 | 32
47 | c1ccc(OCc2cn(-c3ccccc3)nn2)cc1 | 31
48 | COC(=O)c1cn(Cc2ccccc2)nn1 | 25
49 | C=CCn1cc(COc2ccccc2)nn1 | 16
50 | COc1ccc(-n2cc(COc3ccccc3)nn2)cc1 | 10
51 | O=C1c2ccccc2C(=O)N1Cc1cn(-c2cccnc2)nn1 | 24
52 | O=C1c2ccccc2C(=O)N1Cc1cn(-c2ccc([N+](=O)[O-])cc2)nn1 | 22
53 | c1ccc(Cn2cc(COc3ccccc3)nn2)cc1 | 12
54 | C=CCn1cc(C(OCC)OCC)nn1 | 17
55 | O=[N+]([O-])c1ccc(-n2cc(COc3ccccc3)nn2)cc1 | 27
56 | C=CCn1cc(C(=O)OC)nn1 | 21

The compounds below were run on Staphylococcus aureus (assay: Growth inhibition of Staphylococcus aureus RN4220 expressing MsrA at 0.1 mg/ml after 24 hrs). Details: not given.
Assay type: functional

Row | SMILES | Activity
57 | OCc1cn(Cc2ccccc2)nn1 | inactive
58 | CCOC(OCC)c1cn(-c2ccccc2)nn1 | inactive
59 | C=CCn1cc(C(=O)O)nn1 | inactive
60 | CCOC(OCC)c1cn(-c2cccnc2)nn1 | inactive

Same assay, conditions: RN4220, 24 h

Row | SMILES | inhibition at 100 µg/mL [%]
61 | O=C(O)c1cn(-c2ccccc2)nn1 | 54
62 | O=C1c2ccccc2C(=O)N1Cc1cn(-c2ccccc2)nn1 | 24
63 | COc1ccc(-n2cc(C(=O)O)nn2)cc1 | 38
64 | COc1ccc(-n2cc(CN3C(=O)c4ccccc4C3=O)nn2)cc1 | 24.1
65 | O=C(O)c1cn(-c2cccnc2)nn1 | 52.6
66 | O=C(O)c1cn(Cc2ccccc2)nn1 | 31
67 | c1ccc(OCc2cn(-c3cccnc3)nn2)cc1 | 30
68 | CCCCCCCCCCCCn1cc(CN2C(=O)c3ccccc3C2=O)nn1 | 43
69 | O=C1c2ccccc2C(=O)N1Cc1cn(Cc2ccccc2)nn1 | 30
70 | COC(=O)c1cn(-c2cccnc2)nn1 | 11
71 | CCCCCCCCn1cc(CN2C(=O)c3ccccc3C2=O)nn1 | 40
72 | CCOC(OCC)c1cn(Cc2ccccc2)nn1 | 19
73 | c1ccc(OCc2cn(-c3ccccc3)nn2)cc1 | 11
74 | COC(=O)c1cn(Cc2ccccc2)nn1 | 15
75 | C=CCn1cc(COc2ccccc2)nn1 | 32
76 | CCOC(OCC)c1cn(-c2ccc(OC)cc2)nn1 | 9
77 | COc1ccc(-n2cc(COc3ccccc3)nn2)cc1 | 21
78 | O=C1c2ccccc2C(=O)N1Cc1cn(-c2cccnc2)nn1 | 46
79 | C=CCn1cc(CN2C(=O)c3ccccc3C2=O)nn1 | 33
80 | O=C1c2ccccc2C(=O)N1Cc1cn(-c2ccc([N+](=O)[O-])cc2)nn1 | 48.1
81 | c1ccc(Cn2cc(COc3ccccc3)nn2)cc1 | 32.7
82 | C=CCn1cc(C(OCC)OCC)nn1 | 6
83 | O=[N+]([O-])c1ccc(-n2cc(COc3ccccc3)nn2)cc1 | 34
84 | C=CCn1cc(C(=O)OC)nn1 | 44

These compounds were tested on Staphylococcus aureus (assay: Growth inhibition of Staphylococcus aureus 1199B expressing NorA at 0.1 mg/ml after 24 hrs). Details: not given.
Assay type: functional

Row | SMILES | inhibition at 100 µg/mL [%] | Activity
85 | O=C(O)c1cn(-c2ccccc2)nn1 | 18 | –
86 | O=C1c2ccccc2C(=O)N1Cc1cn(-c2ccccc2)nn1 | 17 | –
87 | COc1ccc(-n2cc(C(=O)O)nn2)cc1 | 21 | –
88 | COc1ccc(-n2cc(CN3C(=O)c4ccccc4C3=O)nn2)cc1 | 15 | –
89 | O=C(O)c1cn(-c2cccnc2)nn1 | 23 | –
90 | O=C(O)c1cn(Cc2ccccc2)nn1 | 8 | –
91 | c1ccc(OCc2cn(-c3cccnc3)nn2)cc1 | 22 | –
92 | OCc1cn(Cc2ccccc2)nn1 | 6 | –
93 | CCCCCCCCCCCCn1cc(CN2C(=O)c3ccccc3C2=O)nn1 | 40 | –
94 | O=C1c2ccccc2C(=O)N1Cc1cn(Cc2ccccc2)nn1 | 57 | –
95 | CCOC(OCC)c1cn(-c2ccccc2)nn1 | – | inactive
96 | COC(=O)c1cn(-c2cccnc2)nn1 | – | inactive
97 | CCCCCCCCn1cc(CN2C(=O)c3ccccc3C2=O)nn1 | 27.4 | –
98 | C=CCn1cc(C(=O)O)nn1 | – | inactive
99 | CCOC(OCC)c1cn(Cc2ccccc2)nn1 | 6 | –
100 | c1ccc(OCc2cn(-c3ccccc3)nn2)cc1 | 11 | –
101 | COC(=O)c1cn(Cc2ccccc2)nn1 | 15 | –
102 | C=CCn1cc(COc2ccccc2)nn1 | 15 | –
103 | CCOC(OCC)c1cn(-c2ccc(OC)cc2)nn1 | 11 | –
104 | COc1ccc(-n2cc(COc3ccccc3)nn2)cc1 | 11 | –
105 | O=C1c2ccccc2C(=O)N1Cc1cn(-c2cccnc2)nn1 | 22 | –
106 | C=CCn1cc(CN2C(=O)c3ccccc3C2=O)nn1 | 18 | –
107 | O=C1c2ccccc2C(=O)N1Cc1cn(-c2ccc([N+](=O)[O-])cc2)nn1 | 35 | –
108 | c1ccc(Cn2cc(COc3ccccc3)nn2)cc1 | 21 | –
109 | C=CCn1cc(C(OCC)OCC)nn1 | – | inactive
110 | O=[N+]([O-])c1ccc(-n2cc(COc3ccccc3)nn2)cc1 | 18 | –
111 | CCOC(OCC)c1cn(-c2cccnc2)nn1 | 6.3 | –
112 | C=CCn1cc(C(=O)OC)nn1 | 16 | –

Each compound was assayed on Staphylococcus aureus (assay: Growth inhibition of Staphylococcus aureus RN4220 expressing MsrA at 0.1 mg/ml after 24 hrs in presence of 16 mg/L erythromycin). Details: not given.
Assay type: functional

Row | SMILES | Inhibition [%] | Activity
113 | O=C(O)c1cn(-c2ccccc2)nn1 | 74.9 | –
114 | O=C1c2ccccc2C(=O)N1Cc1cn(-c2ccccc2)nn1 | 41 | –
115 | COc1ccc(-n2cc(C(=O)O)nn2)cc1 | 45.8 | –
116 | COc1ccc(-n2cc(CN3C(=O)c4ccccc4C3=O)nn2)cc1 | 48 | –
117 | O=C(O)c1cn(-c2cccnc2)nn1 | 78 | –
118 | O=C(O)c1cn(Cc2ccccc2)nn1 | 22 | –
119 | c1ccc(OCc2cn(-c3cccnc3)nn2)cc1 | 58 | –
120 | OCc1cn(Cc2ccccc2)nn1 | – | inactive
121 | CCCCCCCCCCCCn1cc(CN2C(=O)c3ccccc3C2=O)nn1 | 65 | –
122 | O=C1c2ccccc2C(=O)N1Cc1cn(Cc2ccccc2)nn1 | 44 | –
123 | CCOC(OCC)c1cn(-c2ccccc2)nn1 | – | inactive
124 | COC(=O)c1cn(-c2cccnc2)nn1 | 78.3 | –
125 | CCCCCCCCn1cc(CN2C(=O)c3ccccc3C2=O)nn1 | 24 | –
126 | C=CCn1cc(C(=O)O)nn1 | – | inactive
127 | CCOC(OCC)c1cn(Cc2ccccc2)nn1 | 28 | –
128 | c1ccc(OCc2cn(-c3ccccc3)nn2)cc1 | 41 | –
129 | COC(=O)c1cn(Cc2ccccc2)nn1 | 33 | –
130 | C=CCn1cc(COc2ccccc2)nn1 | 38 | –
131 | CCOC(OCC)c1cn(-c2ccc(OC)cc2)nn1 | 25 | –
132 | COc1ccc(-n2cc(COc3ccccc3)nn2)cc1 | 39 | –
133 | O=C1c2ccccc2C(=O)N1Cc1cn(-c2cccnc2)nn1 | 71 | –
134 | C=CCn1cc(CN2C(=O)c3ccccc3C2=O)nn1 | 36 | –
135 | O=C1c2ccccc2C(=O)N1Cc1cn(-c2ccc([N+](=O)[O-])cc2)nn1 | 72 | –
136 | c1ccc(Cn2cc(COc3ccccc3)nn2)cc1 | 43 | –
137 | C=CCn1cc(C(OCC)OCC)nn1 | 40 | –
138 | O=[N+]([O-])c1ccc(-n2cc(COc3ccccc3)nn2)cc1 | 56 | –
139 | CCOC(OCC)c1cn(-c2cccnc2)nn1 | – | inactive
140 | C=CCn1cc(C(=O)OC)nn1 | 71 | –
